What was measured:
[1] = biological target: Insulin-like growth factor 1 receptor (Homo sapiens) (UniProt P08069); assay: Inhibition of IGF-1R (unknown origin) at 1 uM incubated for 30 mins in presence of [gamma-33P]ATP by multidrop micro reagent based assay relative to control; values are per cent of control
[2] = biological target: MAP kinase-interacting serine/threonine-protein kinase 2 (Homo sapiens) (UniProt Q9HBH9); assay: Inhibition of MNK2 (unknown origin) at 1 uM incubated for 30 mins in presence of [gamma-33P]ATP by multidrop micro reagent based assay relative to control; values are per cent of control
[3] = biological target: T1, Serine/threonine-protein kinase 3 (Homo sapiens) (UniProt Q13188); assay: Inhibition of MST2 (unknown origin) at 1 uM incubated for 30 mins in presence of [gamma-33P]ATP by multidrop micro reagent based assay relative to control; values are per cent of control
T1 sequence (whole entry): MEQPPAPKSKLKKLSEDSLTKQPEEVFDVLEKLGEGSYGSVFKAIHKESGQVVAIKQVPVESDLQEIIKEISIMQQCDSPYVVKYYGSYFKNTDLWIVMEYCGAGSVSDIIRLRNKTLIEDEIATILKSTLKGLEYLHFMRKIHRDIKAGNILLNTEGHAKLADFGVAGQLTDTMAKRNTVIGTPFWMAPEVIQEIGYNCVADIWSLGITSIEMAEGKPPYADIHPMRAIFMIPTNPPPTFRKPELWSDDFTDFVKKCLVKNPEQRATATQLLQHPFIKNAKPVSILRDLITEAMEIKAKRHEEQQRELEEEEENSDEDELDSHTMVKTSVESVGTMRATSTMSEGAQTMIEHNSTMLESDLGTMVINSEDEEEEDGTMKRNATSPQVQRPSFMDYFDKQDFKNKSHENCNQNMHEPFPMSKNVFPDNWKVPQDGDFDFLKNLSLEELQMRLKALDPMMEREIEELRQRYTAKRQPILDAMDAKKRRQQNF

[4] = biological target: Ephrin type-A receptor 2 (Homo sapiens) (UniProt P29317); assay: Inhibition of EPH A2 (unknown origin) at 1 uM incubated for 30 mins in presence of [gamma-33P]ATP by multidrop micro reagent based assay relative to control; values are per cent of control
[5] = biological target: Mitogen-activated protein kinase 14 (Homo sapiens) (UniProt Q16539); assay: Inhibition of p38alpha MAPK (unknown origin) at 1 uM incubated for 30 mins in presence of [gamma-33P]ATP by multidrop micro reagent based assay relative to control; values are per cent of control
[6] = biological target: Mitogen-activated protein kinase 3 (Homo sapiens) (UniProt P27361); assay: Inhibition of ERK1 (unknown origin) at 1 uM incubated for 30 mins in presence of [gamma-33P]ATP by multidrop micro reagent based assay relative to control; values are per cent of control
[7] = biological target: T2, Mitogen-activated protein kinase 12 (Homo sapiens) (UniProt P53778); assay: Inhibition of p38gamma MAPK (unknown origin) at 1 uM incubated for 30 mins in presence of [gamma-33P]ATP by multidrop micro reagent based assay relative to control; values are per cent of control
T2 sequence (whole entry): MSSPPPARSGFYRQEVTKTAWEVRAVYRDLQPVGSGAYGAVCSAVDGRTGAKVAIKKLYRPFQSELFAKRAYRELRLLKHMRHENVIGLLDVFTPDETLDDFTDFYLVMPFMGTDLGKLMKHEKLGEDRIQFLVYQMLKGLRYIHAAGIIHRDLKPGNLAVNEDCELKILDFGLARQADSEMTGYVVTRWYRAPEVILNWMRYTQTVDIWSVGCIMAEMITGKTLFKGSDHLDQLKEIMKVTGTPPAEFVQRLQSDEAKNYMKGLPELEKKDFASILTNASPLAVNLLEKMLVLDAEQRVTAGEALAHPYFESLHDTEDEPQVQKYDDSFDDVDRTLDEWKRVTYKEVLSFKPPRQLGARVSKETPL

[8] = biological target: Serine/threonine-protein kinase PAK 6 (Homo sapiens) (UniProt Q9NQU5); assay: Inhibition of PAK6 (unknown origin) at 1 uM incubated for 30 mins in presence of [gamma-33P]ATP by multidrop micro reagent based assay relative to control
[9] = biological target: Myosin light chain kinase, smooth muscle (Homo sapiens) (UniProt Q15746); assay: Inhibition of SmMLCK (unknown origin) at 1 uM incubated for 30 mins in presence of [gamma-33P]ATP by multidrop micro reagent based assay relative to control; values are per cent of control
[10] = biological target: Tyrosine-protein kinase BTK (Homo sapiens) (UniProt Q06187); assay: Inhibition of BTK (unknown origin) at 1 uM incubated for 30 mins in presence of [gamma-33P]ATP by multidrop micro reagent based assay relative to control
[11] = biological target: Tyrosine-protein kinase CSK (Homo sapiens) (UniProt P41240); assay: Inhibition of CSK (unknown origin) at 1 uM incubated for 30 mins in presence of [gamma-33P]ATP by multidrop micro reagent based assay relative to control
[12] = biological target: Ribosomal protein S6 kinase alpha-5 (Homo sapiens) (UniProt O75582); assay: Inhibition of MSK1 (unknown origin) at 1 uM incubated for 30 mins in presence of [gamma-33P]ATP by multidrop micro reagent based assay relative to control; values are per cent of control
[13] = biological target: Serine/threonine-protein kinase PLK1 (Homo sapiens) (UniProt P53350); assay: Inhibition of PLK1 (unknown origin) at 1 uM incubated for 30 mins in presence of [gamma-33P]ATP by multidrop micro reagent based assay relative to control; values are per cent of control
[14] = biological target: AMP-activated protein kinase, AMPK (Homo sapiens) (UniProt P54646+O43741+P54619+Q9UGJ0+Q9Y478+Q13131+Q9UGI9); assay: Inhibition of AMPK (unknown origin) at 1 uM incubated for 30 mins in presence of [gamma-33P]ATP by multidrop micro reagent based assay relative to control; values are per cent of control
[15] = biological target: Protein kinase C alpha type (Homo sapiens) (UniProt P17252); assay: Inhibition of PKCalpha (unknown origin) at 1 uM incubated for 30 mins in presence of [gamma-33P]ATP by multidrop micro reagent based assay relative to control; values are per cent of control
[16] = biological target: Mitogen-activated protein kinase kinase kinase 11 (Homo sapiens) (UniProt Q16584); assay: Inhibition of MLK3 (unknown origin) at 1 uM incubated for 30 mins in presence of [gamma-33P]ATP by multidrop micro reagent based assay relative to control; values are per cent of control

Chain of Mitogen-activated protein kinase 3 (Homo sapiens) (P27361 whole entry): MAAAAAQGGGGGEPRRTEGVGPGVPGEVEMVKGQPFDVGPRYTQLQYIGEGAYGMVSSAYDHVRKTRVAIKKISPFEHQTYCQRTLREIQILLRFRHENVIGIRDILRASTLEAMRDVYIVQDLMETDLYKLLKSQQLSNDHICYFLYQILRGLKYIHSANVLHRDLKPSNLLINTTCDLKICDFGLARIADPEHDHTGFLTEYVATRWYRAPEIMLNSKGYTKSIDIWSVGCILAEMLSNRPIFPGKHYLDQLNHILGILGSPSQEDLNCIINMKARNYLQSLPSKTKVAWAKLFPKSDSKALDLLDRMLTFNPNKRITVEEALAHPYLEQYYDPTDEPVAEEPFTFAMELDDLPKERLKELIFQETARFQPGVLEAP
Chain of Serine/threonine-protein kinase PLK1 (Homo sapiens) (P53350 whole entry): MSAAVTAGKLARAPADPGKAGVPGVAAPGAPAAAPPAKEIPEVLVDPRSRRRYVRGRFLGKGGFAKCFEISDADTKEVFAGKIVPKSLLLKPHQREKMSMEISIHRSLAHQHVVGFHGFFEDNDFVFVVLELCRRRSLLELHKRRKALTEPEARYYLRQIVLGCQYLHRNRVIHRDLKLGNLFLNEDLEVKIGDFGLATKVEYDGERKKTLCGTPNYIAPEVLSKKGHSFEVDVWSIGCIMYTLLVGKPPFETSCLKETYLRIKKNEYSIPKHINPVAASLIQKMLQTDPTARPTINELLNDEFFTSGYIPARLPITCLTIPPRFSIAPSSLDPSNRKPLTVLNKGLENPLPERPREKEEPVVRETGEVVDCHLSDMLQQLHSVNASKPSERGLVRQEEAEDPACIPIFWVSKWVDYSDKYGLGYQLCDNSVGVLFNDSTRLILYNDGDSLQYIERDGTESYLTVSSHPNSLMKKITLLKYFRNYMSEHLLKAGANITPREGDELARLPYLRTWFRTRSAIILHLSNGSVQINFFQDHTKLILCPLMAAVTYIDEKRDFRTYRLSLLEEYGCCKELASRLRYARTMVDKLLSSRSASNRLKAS
Chain of MAP kinase-interacting serine/threonine-protein kinase 2 (Homo sapiens) (Q9HBH9 whole entry, looked up): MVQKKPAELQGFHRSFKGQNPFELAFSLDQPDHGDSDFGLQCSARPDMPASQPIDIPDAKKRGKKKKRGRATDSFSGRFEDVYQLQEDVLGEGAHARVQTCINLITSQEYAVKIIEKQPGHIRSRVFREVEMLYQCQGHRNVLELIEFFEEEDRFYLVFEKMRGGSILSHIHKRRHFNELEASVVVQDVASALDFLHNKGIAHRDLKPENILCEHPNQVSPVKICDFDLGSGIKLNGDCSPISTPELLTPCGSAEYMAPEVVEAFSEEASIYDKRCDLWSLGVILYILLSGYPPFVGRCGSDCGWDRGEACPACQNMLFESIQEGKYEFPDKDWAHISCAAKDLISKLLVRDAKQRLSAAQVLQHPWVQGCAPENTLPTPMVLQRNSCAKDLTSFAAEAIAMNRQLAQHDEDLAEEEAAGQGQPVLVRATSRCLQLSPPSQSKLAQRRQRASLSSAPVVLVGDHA
Chain of Tyrosine-protein kinase CSK (Homo sapiens) (P41240 2-450 limits assumed): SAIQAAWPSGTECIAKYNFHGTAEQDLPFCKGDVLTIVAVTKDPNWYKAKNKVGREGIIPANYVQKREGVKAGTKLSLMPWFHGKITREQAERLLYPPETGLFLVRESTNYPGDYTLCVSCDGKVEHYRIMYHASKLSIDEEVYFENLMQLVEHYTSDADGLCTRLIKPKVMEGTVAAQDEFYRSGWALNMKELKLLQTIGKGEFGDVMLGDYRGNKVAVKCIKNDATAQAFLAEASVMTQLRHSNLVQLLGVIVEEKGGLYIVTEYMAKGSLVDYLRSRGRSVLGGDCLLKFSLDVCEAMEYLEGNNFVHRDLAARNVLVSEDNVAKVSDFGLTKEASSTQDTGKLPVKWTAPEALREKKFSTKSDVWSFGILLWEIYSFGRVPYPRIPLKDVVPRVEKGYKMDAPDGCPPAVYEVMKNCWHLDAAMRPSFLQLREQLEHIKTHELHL
Chain of Mitogen-activated protein kinase 14 (Homo sapiens) (Q16539 whole entry): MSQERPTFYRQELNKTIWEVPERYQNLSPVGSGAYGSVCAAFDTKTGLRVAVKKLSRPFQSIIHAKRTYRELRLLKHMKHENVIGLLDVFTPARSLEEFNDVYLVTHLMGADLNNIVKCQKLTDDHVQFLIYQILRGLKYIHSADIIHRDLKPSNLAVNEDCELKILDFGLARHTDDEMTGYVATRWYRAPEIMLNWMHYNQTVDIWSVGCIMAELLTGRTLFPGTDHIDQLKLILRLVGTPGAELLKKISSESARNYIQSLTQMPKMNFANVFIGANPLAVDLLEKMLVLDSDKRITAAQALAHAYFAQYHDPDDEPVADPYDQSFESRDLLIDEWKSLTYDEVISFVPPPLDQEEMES
Chain of Ribosomal protein S6 kinase alpha-5 (Homo sapiens) (O75582 whole entry, looked up): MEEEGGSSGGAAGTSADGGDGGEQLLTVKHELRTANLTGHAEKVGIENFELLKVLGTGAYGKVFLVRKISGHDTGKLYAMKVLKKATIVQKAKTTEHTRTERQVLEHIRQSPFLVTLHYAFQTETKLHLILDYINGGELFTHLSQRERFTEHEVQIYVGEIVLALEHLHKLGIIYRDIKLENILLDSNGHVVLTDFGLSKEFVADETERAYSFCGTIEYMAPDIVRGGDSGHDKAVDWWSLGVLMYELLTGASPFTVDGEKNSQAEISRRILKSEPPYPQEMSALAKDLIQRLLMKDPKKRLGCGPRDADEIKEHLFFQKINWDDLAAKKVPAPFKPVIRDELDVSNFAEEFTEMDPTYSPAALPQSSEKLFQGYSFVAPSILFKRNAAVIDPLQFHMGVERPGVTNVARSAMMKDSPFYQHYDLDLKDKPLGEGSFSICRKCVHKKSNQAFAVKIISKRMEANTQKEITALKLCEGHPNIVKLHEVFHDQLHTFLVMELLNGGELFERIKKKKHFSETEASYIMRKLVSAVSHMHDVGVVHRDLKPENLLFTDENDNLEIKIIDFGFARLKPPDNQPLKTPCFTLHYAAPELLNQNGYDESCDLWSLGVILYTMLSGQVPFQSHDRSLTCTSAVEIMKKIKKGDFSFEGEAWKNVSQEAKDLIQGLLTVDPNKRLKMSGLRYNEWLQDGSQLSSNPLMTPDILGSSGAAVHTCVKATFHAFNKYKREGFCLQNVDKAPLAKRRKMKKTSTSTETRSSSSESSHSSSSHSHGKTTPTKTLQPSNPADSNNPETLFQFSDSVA
Chain of Ephrin type-A receptor 2 (Homo sapiens) (P29317 whole entry): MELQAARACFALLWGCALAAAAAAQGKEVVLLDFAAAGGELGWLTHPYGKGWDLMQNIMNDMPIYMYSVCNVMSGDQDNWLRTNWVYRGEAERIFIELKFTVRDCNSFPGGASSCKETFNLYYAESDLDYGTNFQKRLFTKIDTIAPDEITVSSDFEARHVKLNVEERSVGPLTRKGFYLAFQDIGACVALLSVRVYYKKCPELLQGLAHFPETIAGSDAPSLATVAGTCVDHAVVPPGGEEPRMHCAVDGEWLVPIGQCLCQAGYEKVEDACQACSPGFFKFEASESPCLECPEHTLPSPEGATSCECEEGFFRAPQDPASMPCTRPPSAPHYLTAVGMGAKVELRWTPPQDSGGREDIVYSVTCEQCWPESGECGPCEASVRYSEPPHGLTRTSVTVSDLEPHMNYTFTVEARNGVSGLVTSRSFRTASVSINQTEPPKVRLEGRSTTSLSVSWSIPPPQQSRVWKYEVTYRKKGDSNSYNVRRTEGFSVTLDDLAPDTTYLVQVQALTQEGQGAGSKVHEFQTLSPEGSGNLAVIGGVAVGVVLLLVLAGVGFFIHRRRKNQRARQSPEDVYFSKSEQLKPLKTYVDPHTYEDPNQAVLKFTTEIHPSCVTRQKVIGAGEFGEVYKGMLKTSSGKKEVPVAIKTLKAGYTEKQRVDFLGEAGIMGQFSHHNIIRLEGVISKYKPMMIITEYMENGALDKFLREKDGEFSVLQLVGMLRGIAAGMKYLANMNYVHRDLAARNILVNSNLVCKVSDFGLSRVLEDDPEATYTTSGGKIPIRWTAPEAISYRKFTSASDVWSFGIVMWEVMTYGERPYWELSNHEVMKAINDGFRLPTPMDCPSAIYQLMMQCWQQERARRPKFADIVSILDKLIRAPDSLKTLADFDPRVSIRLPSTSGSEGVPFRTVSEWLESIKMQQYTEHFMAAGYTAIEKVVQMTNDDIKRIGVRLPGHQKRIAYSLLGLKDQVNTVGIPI

SMILES	residual activity [1]	residual activity [2]	residual activity [3]	residual activity [4]	residual activity [5]	residual activity [6]	residual activity [7]	residual activity [8]	residual activity [9]	inhibition [10]	inhibition [11]	residual activity [12]	residual activity [13]	residual activity [14]	residual activity [15]	residual activity [16]
CC1=C(C(=O)Nc2cc3cn[nH]c3cc2F)C(c2ccc(C(F)(F)F)cc2)CC(=O)N1 (centres undefined)	97%	88%	108%	105%	103%	90%	112%	109%	73%	66%	106%	20%	102%	78%	82%	116%
Cc1cncc2cccc(S(=O)(=O)N3CCCNC[C@@H]3C)c12	113%	49%	41%	49%	109%	105%	101%	103%	96%	82%	101%	39%	105%	45%	70%	85%
CCN(CC)CCNC(=O)c1c(C)[nH]c(/C=C2\C(=O)Nc3ccc(F)cc32)c1C												60%		15%		
CCn1c(-c2nonc2N)nc2cnc(Oc3cccc(NC(=O)c4ccc(OCCN5CCOCC5)cc4)c3)cc21 [GSK-269962A]	104%	51%	98%	108%	108%	106%	72%	106%	65%	107%	98%	1%	105%		32%	97%

Reference: ChEMBL document CHEMBL5705888, “Substrate specificity and inhibitors of LRRK2, a protein kinase mutated in Parkinson's disease” (Biochem J, 2009)
